{"source": "patent US20100227827A1", "about": "“METHOD OF INCREASING TRYPTOPHAN AND NICOTINAMIDE LEVELS IN VIVO” (priority 2006, published 2010)", "key": {"serum protein thiols": {"test_system": "serum protein thiols", "assay": "Serum protein thiols as in vivo anti-oxidant indicator", "set-up": "species or system human", "conditions": "for Increase in serum protein thiols (ratio): after to before (baseline)", "text": "The following detailed description was designed to standardize the estimation of the in vivo level of serum protein thiols that have been used previously to estimate DNA repair capacity. When a blood sample is collected and the serum isolated, then the level of serum protein thiols is an estimate of the concentration between thiols and disulfides existing in protein structures that are in turn equilibrated to the existing oxidant environment in vivo. Thus, serum protein thiol analyses are an in vivo estimate of the antioxidant status of an individual that is in turn regulated by DNA repair.\nA stock solution of the colorimetric agent 5,5′-dithio-bis-(2-nitrobenzoic acid (DTNB), was prepared using: 9.5 mg/ml solid DTNB, 0.1 M K2HPO4, and 17.5 mM EDTA. pH was adjusted to 7.5 and then diluted to desired volume. Working DTNB solution was prepared by diluting DTNB stock solution 1:50 with saline. Solutions of L-cysteine were prepared and a standard curve was constructed desirably be in the 0-100 μM range. Stock solutions were diluted as required and absorbance was measured using 96-well flat-bottom microtiter plate. 50 μL-cysteine solution with 200 μl working DTNB solution was placed per well. […]\nA DTNB blank (50 μl saline+200 μl DTNB) was made. Absorbance values were made at 412 nm with a microtiter plate scanner spectrophotometer. The average of every concentration was calculated and DTNB blank was subtracted from every value. Using a plot of concentration (x-axis) vs. absorbance (y-axis) by comparison with standard cysteine solutions the cysteine concentration was determined.\nA saturated ammonium sulfate solution was prepared. […] Absorbance in microtiter plate scanner set at 412 nm was measured making sure that bubbles in the well are avoided.\nThe average was calculated for the DTNB blank and the saline blank. […]\nThen the corrected serum value was subtracted from the corrected sample value. This value was the final serum thiol value expressed as absorbance at […]. […]\nAltogether this was a 20 fold dilution (4×5=20). […] Thiols were hereby measured in nmoles/0.72 ml."}, "[1]": {"assay": "Molar ratio from neutralization of free organic acid with hydroxides", "format": "physicochemical", "conditions": "salt or chelate; listed as Quinic acid ammonium salt", "protocol": "Determination of salts and chelates of some naturally occurring polyhydroxylated and polycarboxylated organic acids are provided in Table 1. Experimental molar ratios were calculated from neutralization to pH=7.5 of free protonated organic acid (H^+) with sodium, potassium or ammonium hydroxides."}}}
{"smiles": "O=C(O)[C@]1(O)C[C@@H](O)[C@@H](O)[C@H](O)C1", "note": "[Aqua Bimini™, quinic acid ammonium chelate]", "values": [{"measurement": "Increase in serum protein thiols (ratio)", "setting": "serum protein thiols; 3000 mg/day for 36 days", "result": 1.26}, {"measurement": "Increase in serum protein thiols (ratio)", "setting": "serum protein thiols; HL 1500 mg/day for 36 days", "result": 1.22}, {"measurement": "reduced thiols (—SH) in serum proteins", "setting": "serum protein thiols; supplementation 1500 or 3000 mg/day, treatment and follow-up versus baseline", "result": "significant increase"}, {"measurement": "Determination of structure existing in water", "setting": "[1]", "result": "chelate"}]}
